Data as given in ChEMBL document CHEMBL6096703 (J Med Chem, 2025).
Calls of active or inactive are those of the source. The rule behind the calls is not given here.

Columns and labels:
[1] = molecular target: T1, Poly [ADP-ribose] polymerase 1 (Homo sapiens, UniProt P09874); assay: Inhibition of PARP1 in PARP2 knockout human A549 cells preincubated with compound for 1 hr followed by H2O2 addition and measured after 5 mins by selective targeting PARylation inhibition assay; assay type: cell-based
T1 sequence (P09874 whole entry): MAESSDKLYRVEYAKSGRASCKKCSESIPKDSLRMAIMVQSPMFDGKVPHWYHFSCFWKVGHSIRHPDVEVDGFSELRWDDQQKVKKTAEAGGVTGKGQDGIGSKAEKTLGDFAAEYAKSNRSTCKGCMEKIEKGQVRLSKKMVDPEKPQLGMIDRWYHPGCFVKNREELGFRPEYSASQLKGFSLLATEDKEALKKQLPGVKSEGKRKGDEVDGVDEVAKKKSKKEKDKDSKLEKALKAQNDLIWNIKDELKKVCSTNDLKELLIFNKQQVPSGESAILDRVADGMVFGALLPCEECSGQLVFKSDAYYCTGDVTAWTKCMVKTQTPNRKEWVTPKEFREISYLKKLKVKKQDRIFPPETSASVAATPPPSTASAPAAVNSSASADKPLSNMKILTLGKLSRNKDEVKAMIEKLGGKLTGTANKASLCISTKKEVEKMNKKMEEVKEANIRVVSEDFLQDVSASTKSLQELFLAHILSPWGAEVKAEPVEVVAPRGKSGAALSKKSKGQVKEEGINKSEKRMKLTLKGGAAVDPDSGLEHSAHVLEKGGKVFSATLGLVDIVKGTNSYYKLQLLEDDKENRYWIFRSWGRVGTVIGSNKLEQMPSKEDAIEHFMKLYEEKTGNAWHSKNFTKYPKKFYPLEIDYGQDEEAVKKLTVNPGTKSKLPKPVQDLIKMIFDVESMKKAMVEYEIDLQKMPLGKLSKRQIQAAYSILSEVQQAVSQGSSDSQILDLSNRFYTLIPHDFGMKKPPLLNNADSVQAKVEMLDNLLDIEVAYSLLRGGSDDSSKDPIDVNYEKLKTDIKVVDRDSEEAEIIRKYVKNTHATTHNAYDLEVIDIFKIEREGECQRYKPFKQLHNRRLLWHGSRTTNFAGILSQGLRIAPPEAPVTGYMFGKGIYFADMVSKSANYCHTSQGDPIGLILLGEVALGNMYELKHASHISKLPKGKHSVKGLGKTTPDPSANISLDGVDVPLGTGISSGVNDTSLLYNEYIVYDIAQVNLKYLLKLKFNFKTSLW

MDA-MB-436 [2] = assay: Antitumor activity against human MDA-MB-436 cells xenografted in female NOD/SCID mouse assessed as tumor regression rate at 3 mg/kg, po administered once every other day for 28 days relative to control; assay type: functional; settings: time 28 day
[3] = Clearance in male Balb/c mouse at 1 mg/kg, iv measured upto 96 hrs by LC-MS/MS analysis; assay type: ADME, organism-based; settings: in vivo, iv, 1 mg/kg, 96 h
MDA-MB-436 [4] = assay: Antiproliferative activity against human MDA-MB-436 cells assessed as inhibition of cell proliferation at 100 nM incubated for 7 days by CCK-8 assay relative to control; assay type: functional; settings: MDA-MB-436, 168 h, time 7 day
[5] = Oral bioavailability in rat at 2.5 mg/kg measured upto 96 hrs by LC-MS/MS analysis; assay type: ADME, organism-based; settings: in vivo
[6] = Cmax in rat at 2.5 mg/kg, po measured upto 96 hrs by LC-MS/MS analysis; assay type: ADME, organism-based; settings: in vivo
[7] = Clearance in rat at 2.5 mg/kg, iv measured upto 96 hrs by LC-MS/MS analysis; assay type: ADME, organism-based; settings: in vivo
[8] = Apparent volume of distribution in rat at 2.5 mg/kg, po measured upto 96 hrs by LC-MS/MS analysis; assay type: ADME, organism-based; settings: in vivo
[9] = Acute toxicity in Kunming mouse assessed as change in cellular morphology of liver at 100 mg/kg administered once every other day via gavage for 14 days by H and E staining based analysis; assay type: organism-based; settings: in vivo, po, 336 h, time 14 day
MDA-MB-436 [10] = assay: Induction of cell cycle arrest in human MDA-MB-436 cells assessed as accumulation of cells at G0/G1 phase at 10 nM incubated for 3 days by PI staining based flow cytometric analysis (Rvb =56.18%); assay type: functional; settings: time 3 day
[11] = Oral bioavailability in male Balb/c mouse at 1 mg/kg measured upto 96 hrs by LC-MS/MS analysis; assay type: ADME, organism-based; settings: in vivo
MDA-MB-436 [12] = assay: Antitumor activity against luciferase tagged human MDA-MB-436 cells xenografted in female NOD-SCID mouse assessed as tumor regression by measuring bioluminescence signal administered orally once a day for 34 days by bioluminescence imaging analysis; assay type: functional, cell-based; settings: dose 3-10 mg/kg, route po, time 34.0 day
[13] = Acute toxicity in Kunming mouse assessed as change in cellular morphology of spleen at 100 mg/kg administered once every other day via gavage for 14 days by H and E staining based analysis; assay type: organism-based; settings: in vivo, po, 336 h, time 14 day
[14] = molecular target: T1, Poly [ADP-ribose] polymerase 1; assay: Inhibition of PARP1 (unknown origin) preincubated with compound for 10 mins followed by DNA and NAD+ addition and measured after 60 mins by chemiluminescence based envision reader analysis
[15] = Toxicity in female NOD/SCID mouse xenografted with human MDA-MB-436 cells assessed as histological changes in kidney at 3 mg/kg, po administered once every other day for 28 days by H and E staining based analysis; assay type: organism-based; settings: in vivo, 672 h, time 28 day
MDA-MB-436 [16] = assay: Induction of cell cycle arrest in human MDA-MB-436 cells assessed as accumulation of cells at G2/M phase at 10 nM incubated for 3 days by PI staining based flow cytometric analysis (Rvb =24.88%); assay type: functional; settings: time 3 day
[17] = molecular target: Poly [ADP-ribose] polymerase 2 (Homo sapiens, UniProt Q9UGN5); assay: Inhibition of PARP2 (unknown origin) preincubated with compound for 10 mins followed by DNA and NAD+ addition and measured after 60 mins by chemiluminescence based envision reader analysis
Sequence of Poly [ADP-ribose] polymerase 2 (Q9UGN5 whole entry): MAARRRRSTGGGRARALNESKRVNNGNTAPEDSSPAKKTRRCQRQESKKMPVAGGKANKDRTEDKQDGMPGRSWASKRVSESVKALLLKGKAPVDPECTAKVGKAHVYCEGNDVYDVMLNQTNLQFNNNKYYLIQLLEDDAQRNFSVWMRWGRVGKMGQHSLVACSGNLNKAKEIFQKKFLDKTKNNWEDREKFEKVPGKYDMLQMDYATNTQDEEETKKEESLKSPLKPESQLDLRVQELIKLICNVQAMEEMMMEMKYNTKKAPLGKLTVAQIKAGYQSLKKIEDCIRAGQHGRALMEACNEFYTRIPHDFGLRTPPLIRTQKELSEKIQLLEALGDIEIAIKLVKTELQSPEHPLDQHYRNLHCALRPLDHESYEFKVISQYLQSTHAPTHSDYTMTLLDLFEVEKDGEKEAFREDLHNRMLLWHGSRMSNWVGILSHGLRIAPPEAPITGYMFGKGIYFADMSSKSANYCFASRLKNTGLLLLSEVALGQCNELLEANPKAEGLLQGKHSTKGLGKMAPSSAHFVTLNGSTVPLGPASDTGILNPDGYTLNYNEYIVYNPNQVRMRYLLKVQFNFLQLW

MDA-MB-436 [18] = assay: Induction of DNA damage in human MDA-MB-436 cells assessed as increase in tail intensity at 100 to 1000 nM incubated for 3 days by PI staining based fluorescence microscopic analysis; assay type: functional, cell-based; settings: dose 100-1000 nM, time 3.0 day
MDA-MB-436 [19] = assay: Induction of cell cycle arrest in human MDA-MB-436 cells assessed as accumulation of cells at G0/G1 phase at 1 nM incubated for 3 days by PI staining based flow cytometric analysis (Rvb =56.18%); assay type: functional; settings: time 3 day
MDA-MB-436 [20] = assay: Induction of cell cycle arrest in human MDA-MB-436 cells assessed as accumulation of cells at G0/G1 phase at 100 nM incubated for 3 days by PI staining based flow cytometric analysis (Rvb =56.18%); assay type: functional; settings: time 3 day
MDA-MB-436 [21] = assay: Inhibition of colony formation in human MDA-MB-436 cells assessed as reduction in survival rate incubated for 10 days by crystal violet staining based assay; assay type: functional, cell-based; settings: dose 0.1-100 nM, time 10.0 day
DLD-1 = assay: Induction of DNA damage in BRCA2 knockout human DLD-1 cells assessed as increase in tail intensity at 100 to 1000 nM incubated for 3 days by PI staining based fluorescence microscopic analysis; assay type: functional, cell-based; settings: dose 100-1000 nM, time 3.0 day
[22] = Sub-acute toxicity in Kunming mouse assessed as change ALTL level at 30 to 100 mg/kg administered via gavage once every other day for 14 days; assay type: organism-based; settings: in vivo, po, 336 h, dose 30-100 mg/kg, time 14 day
[23] = Cmax in male Balb/c mouse at 1 mg/kg, po measured upto 96 hrs by LC-MS/MS analysis; assay type: ADME, organism-based; settings: in vivo
[24] = Apparent volume of distribution in male Balb/c mouse at 1 mg/kg, po measured upto 96 hrs by LC-MS/MS analysis; assay type: ADME, organism-based; settings: in vivo
MDA-MB-436 [25] = assay: Induction of apoptosis in human MDA-MB-436 cells assessed as early apoptotic cells at 100 nM incubated for 3 days by Annexin V/ PI staining based flow cytometry (reference value: 12.8%); assay type: functional; settings: time 3 day
[26] = AUC(0 to t) in rat at 2.5 mg/kg, po measured upto 96 hrs by LC-MS/MS analysis; assay type: ADME, organism-based; settings: in vivo
[27] = Acute toxicity in Kunming mouse assessed as change in cellular morphology of kidney at 100 mg/kg administered once every other day via gavage for 14 days by H and E staining based analysis; assay type: organism-based; settings: in vivo, po, 336 h, time 14 day
[28] = Sub-acute toxicity in Kunming mouse assessed as change LDH2 level at 30 to 100 mg/kg administered via gavage once every other day for 14 days; assay type: organism-based; settings: in vivo, po, 336 h, dose 30-100 mg/kg, time 14 day
[29] = Acute toxicity in Kunming mouse assessed as change in heart structure at 300 mg/kg administered via gavage for 14 days by H and E staining based analysis; assay type: organism-based; settings: in vivo, po, 336 h, time 14 day
[30] = Clearance in rat at 2.5 mg/kg, po measured upto 96 hrs by LC-MS/MS analysis; assay type: ADME, organism-based; settings: in vivo
[31] = Sub-acute toxicity in Kunming mouse assessed as change ALTL level at 100 to 300 mg/kg administered via gavage for 14 days; assay type: organism-based; settings: in vivo, po, 336 h, dose 100-300 mg/kg, time 14 day
MDA-MB-436 [32] = assay: Antitumor activity against human MDA-MB-436 cells xenografted in female NOD/SCID mouse assessed as weaker Ki67 staining at 0.3 to 3 mg/kg, po administered once every other day for 28 days by immunohistochemical analysis; assay type: functional, organism-based; settings: dose 0.3-3 mg/kg, time 28.0 day
MDA-MB-436 [33] = assay: Antitumor activity against human MDA-MB-436 cells xenografted in female NOD/SCID mouse assessed as tumor regression rate at 1 mg/kg, po administered once every other day for 28 days relative to control; assay type: functional; settings: time 28 day

CCc1cc2ncc(CN3CC=C(c4ccc(C#N)cn4)CC3)cc2[nH]c1=O showed an IC50 [1] of 0.9 nM, an Activity (MDA-MB-436 [2]) of 79.8% and a CL [3] of 0.17 mL/min/kg. It also gave an inhibition at 0.1 µM (MDA-MB-436 [4]) of 82.2%, a bioavailability [5] of 85.5% and a Cmax [6] of 7540 ng/mL. The clearance [7] was 0.167 mL/min/kg, the Vz [8] was 0.33 L/kg and the Activity [9] was “Non-toxic”. The Activity (MDA-MB-436 [10]) was 60.25%, the bioavailability [11] was 87.7% and the Activity (MDA-MB-436 [12]) was “Dose-dependent-effect”. For the same compound, the Activity [13] was “Non-toxic”, the IC50 [14] was 0.2 nM and the Activity [15] was “Non-toxic”. The Activity (MDA-MB-436 [16]) was 29.58%, the IC50 [17] was 122 nM and the Activity (MDA-MB-436 [18]) was “Active”. For the same compound, the Activity (MDA-MB-436 [19]) was 56.97%, the Activity (MDA-MB-436 [20]) was 53.32% and the inhibition (MDA-MB-436 [21]) was “Dose-dependent-effect”. For the same compound, the Activity (DLD-1) was “Active”, the Activity [22] was “Non-toxic” and the Cmax [23] was 6630 ng/mL. It also gave a Vz [24] of 0.13 L/kg, an Activity (MDA-MB-436 [25]) of 21.9% and an AUC(0-t) at 96 h [26] of 520 µg·h/mL. The Activity [27] was “Non-toxic”, the Activity [28] was “Non-toxic” and the Activity [29] was “Non-toxic”. The CL/F [30] was 0.167 mL/min/kg, the Activity [31] was “Non-toxic” and the Activity (MDA-MB-436 [32]) was “Active”. For the same compound, the Activity (MDA-MB-436 [33]) was 59.4%.
